Measurements taken from ChEMBL document CHEMBL2062477, “Dual-Specificity Phosphatase CDC25A/B Inhibitor Identified from a Focused Library with Nonelectrophilic Core Structure” (ACS Med Chem Lett, 2012).

Tests used:
[1] = molecular target: T1, Dual specificity protein phosphatase 1 (Homo sapiens, UniProt P28562); test: Inhibition of MKP1
T1 sequence (P28562 whole entry): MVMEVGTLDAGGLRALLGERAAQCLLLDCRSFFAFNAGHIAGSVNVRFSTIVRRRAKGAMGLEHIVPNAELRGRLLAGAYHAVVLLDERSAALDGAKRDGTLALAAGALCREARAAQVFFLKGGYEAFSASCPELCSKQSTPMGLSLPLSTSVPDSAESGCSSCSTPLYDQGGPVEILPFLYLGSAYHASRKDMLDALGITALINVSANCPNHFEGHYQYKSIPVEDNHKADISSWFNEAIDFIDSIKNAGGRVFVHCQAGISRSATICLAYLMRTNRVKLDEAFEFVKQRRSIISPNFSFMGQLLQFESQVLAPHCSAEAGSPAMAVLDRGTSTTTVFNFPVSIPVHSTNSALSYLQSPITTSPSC

[2] = molecular target: T2, M-phase inducer phosphatase 2 (Homo sapiens, UniProt P30305); test: Inhibition of CDC25B
T2 sequence (P30305 whole entry): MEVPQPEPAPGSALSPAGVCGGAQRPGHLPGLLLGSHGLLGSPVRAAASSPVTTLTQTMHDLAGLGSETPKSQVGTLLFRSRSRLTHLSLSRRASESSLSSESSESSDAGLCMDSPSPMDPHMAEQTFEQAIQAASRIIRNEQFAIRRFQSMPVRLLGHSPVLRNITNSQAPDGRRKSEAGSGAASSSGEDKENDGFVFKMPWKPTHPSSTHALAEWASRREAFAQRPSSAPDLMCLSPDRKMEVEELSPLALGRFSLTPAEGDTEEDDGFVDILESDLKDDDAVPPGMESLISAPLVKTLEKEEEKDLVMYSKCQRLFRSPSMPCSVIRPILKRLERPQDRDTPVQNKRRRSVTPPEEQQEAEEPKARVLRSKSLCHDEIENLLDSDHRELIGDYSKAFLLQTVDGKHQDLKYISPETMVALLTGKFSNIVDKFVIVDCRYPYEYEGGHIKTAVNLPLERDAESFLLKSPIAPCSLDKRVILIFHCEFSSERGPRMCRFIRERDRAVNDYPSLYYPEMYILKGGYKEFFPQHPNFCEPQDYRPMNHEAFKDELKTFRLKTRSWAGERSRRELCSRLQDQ

[3] = molecular target: T3, Dual specificity protein phosphatase 6 (Homo sapiens, UniProt Q16828); test: Inhibition of MKP3
T3 sequence (Q16828 whole entry): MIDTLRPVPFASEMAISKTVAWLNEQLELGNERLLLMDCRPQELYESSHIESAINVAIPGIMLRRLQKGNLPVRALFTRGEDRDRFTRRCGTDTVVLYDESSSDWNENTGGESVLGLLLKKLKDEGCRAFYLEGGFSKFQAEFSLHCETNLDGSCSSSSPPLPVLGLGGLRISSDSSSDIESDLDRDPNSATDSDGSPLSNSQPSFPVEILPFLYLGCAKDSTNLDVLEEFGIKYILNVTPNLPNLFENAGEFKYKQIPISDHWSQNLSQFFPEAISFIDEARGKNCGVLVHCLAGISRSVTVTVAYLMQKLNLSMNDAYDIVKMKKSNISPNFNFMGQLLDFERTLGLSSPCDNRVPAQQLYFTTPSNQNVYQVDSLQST

[4] = molecular target: Dual specificity protein phosphatase 3 (Homo sapiens, UniProt P51452); test: Inhibition of VHR
Dual specificity protein phosphatase 3, sequence (P51452 whole entry): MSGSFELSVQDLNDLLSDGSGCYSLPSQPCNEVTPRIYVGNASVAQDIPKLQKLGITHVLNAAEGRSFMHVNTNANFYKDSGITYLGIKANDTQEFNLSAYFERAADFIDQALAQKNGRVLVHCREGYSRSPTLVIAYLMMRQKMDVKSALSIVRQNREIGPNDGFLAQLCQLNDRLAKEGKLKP

[5] = molecular target: T4, Tyrosine-protein phosphatase non-receptor type 1 (Homo sapiens, UniProt P18031); test: Inhibition of PTP1B
T4 sequence (P18031 whole entry): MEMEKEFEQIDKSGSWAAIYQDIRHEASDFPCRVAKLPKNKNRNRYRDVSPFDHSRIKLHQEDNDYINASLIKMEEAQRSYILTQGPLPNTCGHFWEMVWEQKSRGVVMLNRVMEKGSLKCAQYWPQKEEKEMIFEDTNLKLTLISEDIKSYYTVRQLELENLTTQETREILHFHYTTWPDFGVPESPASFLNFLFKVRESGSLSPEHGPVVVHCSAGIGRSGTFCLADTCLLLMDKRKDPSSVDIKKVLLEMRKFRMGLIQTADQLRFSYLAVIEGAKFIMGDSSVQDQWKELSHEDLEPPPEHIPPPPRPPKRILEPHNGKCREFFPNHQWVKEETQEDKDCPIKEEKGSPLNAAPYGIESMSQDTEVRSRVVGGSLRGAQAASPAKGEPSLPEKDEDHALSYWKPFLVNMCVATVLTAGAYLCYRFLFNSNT

[6] = molecular target: T5, M-phase inducer phosphatase 1 (Homo sapiens, UniProt P30304); test: Inhibition of CDC25A
T5 sequence (P30304 whole entry): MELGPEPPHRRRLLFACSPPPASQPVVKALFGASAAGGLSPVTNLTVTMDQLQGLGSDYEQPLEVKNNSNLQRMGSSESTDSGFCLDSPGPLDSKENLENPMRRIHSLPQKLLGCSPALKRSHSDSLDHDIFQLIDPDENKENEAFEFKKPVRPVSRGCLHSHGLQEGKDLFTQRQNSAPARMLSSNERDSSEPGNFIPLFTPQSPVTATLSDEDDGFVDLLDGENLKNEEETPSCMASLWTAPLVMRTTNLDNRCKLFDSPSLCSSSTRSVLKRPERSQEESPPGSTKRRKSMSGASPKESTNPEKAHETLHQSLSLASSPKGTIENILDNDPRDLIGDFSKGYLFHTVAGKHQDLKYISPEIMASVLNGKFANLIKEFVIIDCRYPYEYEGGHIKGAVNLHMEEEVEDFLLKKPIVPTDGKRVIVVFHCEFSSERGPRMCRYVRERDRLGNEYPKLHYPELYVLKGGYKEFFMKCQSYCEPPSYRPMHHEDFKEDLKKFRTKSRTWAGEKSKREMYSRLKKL

[7] = molecular target: T6, M-phase inducer phosphatase 3 (Homo sapiens, UniProt P30307); test: Inhibition of CDC25C
T6 sequence (P30307 whole entry): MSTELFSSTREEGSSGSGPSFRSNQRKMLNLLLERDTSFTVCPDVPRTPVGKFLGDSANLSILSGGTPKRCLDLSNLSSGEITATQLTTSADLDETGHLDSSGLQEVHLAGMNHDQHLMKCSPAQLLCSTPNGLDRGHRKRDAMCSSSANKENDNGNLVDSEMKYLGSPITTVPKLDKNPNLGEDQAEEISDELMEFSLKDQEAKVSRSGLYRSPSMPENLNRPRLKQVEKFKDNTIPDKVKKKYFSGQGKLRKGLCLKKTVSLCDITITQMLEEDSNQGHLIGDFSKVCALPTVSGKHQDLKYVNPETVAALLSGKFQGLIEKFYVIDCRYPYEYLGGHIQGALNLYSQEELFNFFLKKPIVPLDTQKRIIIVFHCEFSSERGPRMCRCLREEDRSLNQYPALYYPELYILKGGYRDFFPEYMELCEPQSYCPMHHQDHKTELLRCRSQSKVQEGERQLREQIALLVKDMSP

[8] = tested on: HL-60; test: cells; details: Homo sapiens, HL-60, 48 h

SMILES	IC50 [1] [µM]	IC50 [2] [µM]	IC50 [3] [µM]	IC50 [4] [µM]	IC50 [5] [µM]	IC50 [6] [µM]	IC50 [7] [µM]	IC50 [8] [µM]
CCCCCCCCCCCCCCCC(NCc1ccc(F)cc1)=C1C(=O)OC(CO)C1=O (mixture of isomers)	> 100	13.1	> 100		> 100	10.7	> 100	
CCCCCCCCCCCCCCCC(NCc1cccc(O)c1)=C1C(=O)OC(CO)C1=O (mixture of isomers)	> 100	3.15	> 100	11.1	> 100	15.4	> 100	
CCCCCCCCCCCCCCCC(NCc1cccc(N(C)C)c1)=C1C(=O)OC(CO)C1=O (mixture of isomers)	> 100	6.55	> 100	5.13	> 100	11.4	> 100	
CCCCCCCCCCCCCCCC(NCc1cccc(F)c1)=C1C(=O)OC(CO)C1=O (mixture of isomers)	> 100	5.13	> 100	4.69	83.7	6.22	78.2	
CCCCCCCCCCCCCCCC(NCc1ccc(O)cc1)=C1C(=O)OC(CO)C1=O (mixture of isomers)	> 100	4.23	> 100	9.93	68.1	6.86	44.1	
CCCCCCCCCCCCCCCC(NCc1ccc(Cl)cc1)=C1C(=O)OC(CO)C1=O (mixture of isomers)	> 100	5.52	> 100	3.63	> 100	6.25	> 100	
CCCCCCCCCCCCCCCC(NCc1ccc(N(C)C)cc1)=C1C(=O)OC(CO)C1=O (mixture of isomers)	> 100	6.23	> 100	12	> 100	8.67	> 100	10.9

Continued, values first:

IC50 [1] [µM]	IC50 [2] [µM]	IC50 [3] [µM]	IC50 [4] [µM]	IC50 [5] [µM]	IC50 [6] [µM]	IC50 [7] [µM]	IC50 [8] [µM]	SMILES
> 100	12.1	> 100	6.6	> 100	19	> 100		CCCCCCCCCCCCCCCC(NCc1ccccc1OC)=C1C(=O)OC(CO)C1=O (mixture of isomers)
> 100		> 100	8.93	> 100	12.6	47.1		CCCCCCCCCCCCCCCC(NCc1ccccc1F)=C1C(=O)OC(CO)C1=O (mixture of isomers)
> 100	5.75	> 100	5.19	> 100	8.5	> 100		CCCCCCCCCCCCCCCC(NCc1ccccc1N(C)C)=C1C(=O)OC(CO)C1=O (mixture of isomers)
> 100	23.8	> 100	6.77	> 100	11.7	> 100		CCCCCCCCCCCCCCCC(NCc1ccc(OC)cc1)=C1C(=O)OC(CO)C1=O (mixture of isomers)
> 100	> 100	> 100	1.43	> 100	> 100	> 100	12	CCCCCCCCCCCCCCCC(NCc1cccc(Cl)c1)=C1C(=O)OC(CO)C1=O (mixture of isomers)
> 100	3.33	> 100	2.68	> 100	7.35	56.7	19.1	CCCCCCCCCCCCCCCC(NCc1ccc(C)cc1)=C1C(=O)OC(CO)C1=O (mixture of isomers)
> 100	8.31	> 100	5.53	> 100	10.2	> 100		CCCCCCCCCCCCCCCC(NCc1cccc(OC)c1)=C1C(=O)OC(CO)C1=O (mixture of isomers)
> 100	8.61	> 100	8.99	> 100	12.7	> 100		CCCCCCCCCCCCCCCC(NCc1ccccc1C)=C1C(=O)OC(CO)C1=O (mixture of isomers)
> 100	13.5	> 100	10.2	> 100	12.3	> 100		CCCCCCCCCCCCCCCC(NCc1ccccc1Cl)=C1C(=O)OC(CO)C1=O (mixture of isomers)
